Source: patent US20030211942A1, “Aryl sulfonyl amino carbonyl triazole based selective herbicides” (priority 2000, published 2003)
Values joined by “and” are separate entries in the source; they are usually repeats but may differ in a detail not shown here. Equal values may be shown once.

Experiments:
Test in all cases: Post-emergence/greenhouse herbicidal test
Type in all cases: in vivo
[1] = tested on: Veronica persicaria; conditions: post-emergence, about 3 weeks
Source text: (§1) Procarbazone- and flucarbazone-sodium were used as 70 WG formulation. Fenoxaprop-P-ethyl was used in a mixture with mefenpyr-diethyl (75 g of mefenpyr-diethyl/l) as Ralon® Super 69 EW. Cinidon-ethyl and florasulam and iodosufuron in a mixture with mefenpyr-diethyl were used in the form of the finished formulations Lotus® 200 EC, Primus® 50 SC and Hussar® 5 WG (15% mefenpyr-diethyl), respectively. Amicarbazone was used as 70 WG formulation.
(§2) In pre- and post-emergence experiments, the spray liquor is usually admixed with a surfactant (Renex 36), at a concentration of 0.1%.
(§3) Test plants are grown under controlled conditions (temperature and light).
(§4) Following the spray application, the plant containers are kept in a greenhouse under constant light and temperature conditions.
(§5) After about 3 weeks, the degree of damage to the plants is rated in % damage in comparison to the development of the untreated control.
(§6) 0% =no damage (like untreated control)
(§7) 100% =total destruction/damage

[2] = tested on: Galium aparine; conditions: post-emergence, about 3 weeks
Source text: as §1, §2, §3, §4, §5, §6, §7

[3] = tested on: Avena fatua
Source text: as §1, §2, §3, §4, §5, §6, §7

[4] = tested on: Matricaria inodora; conditions: 2 g of ai/ha, post-emergence, about 3 weeks
Source text: as §1, §2, §3, §4, §5, §6, §7

[5] = tested on: Lolium perenne; conditions: post-emergence, about 3 weeks
Source text: as §1, §2, §3, §4, §5, §6, §7

[6] = tested on: Bromus secalinus
Source text: as §1, §2, §3, §4, §5, §6, §7

[7] = tested on: Viola arvensis; conditions: post-emergence, about 3 weeks
Source text: as §1, §2, §3, §4, §5, §6, §7

[8] = tested on: Echinochloa crus-galli
Source text: as §1, §2, §3, §4, §5, §6, §7

[9] = tested on: Cassia tora
Source text: as §1, §2, §3, §4, §5, §6, §7

[10] = tested on: Abutilon theophrasti; conditions: post-emergence, about 3 weeks
Source text: as §1, §2, §3, §4, §5, §6, §7

[11] = tested on: Polygonum convolvolus
Source text: as §1, §2, §3, §4, §5, §6, §7

[12] = tested on: Digitaria sanguinalis; conditions: post-emergence, about 3 weeks
Source text: as §1, §2, §3, §4, §5, §6, §7

[13] = tested on: Amaranthus retroflexus; conditions: post-emergence, about 3 weeks
Source text: as §1, §2, §3, §4, §5, §6, §7

[14] = tested on: Xanthium strumarium; conditions: post-emergence, about 3 weeks
Source text: as §1, §2, §3, §4, §5, §6, §7

[15] = tested on: Alopecurus myosuroides; conditions: post-emergence, about 3 weeks
Source text: as §1, §2, §3, §4, §5, §6, §7

[16] = tested on: Setaria viridis
[17] = tested on: Eriochloa villosa; conditions: 15 g of ai/ha, post-emergence, about 3 weeks
Source text: as §1, §2, §3, §4, §5, §6, §7

[18] = tested on: Ipomoea hederacea; conditions: post-emergence, about 3 weeks
Source text: as §1, §2, §3, §4, §5, §6, §7

[19] = tested on: Cyperus esculentus; conditions: post-emergence, about 3 weeks
Source text: as §1, §2, §3, §4, §5, §6, §7

[20] = tested on: Solanum nigrum; conditions: 30 g of ai/ha, post-emergence, about 3 weeks
Source text: as §1, §2, §3, §4, §5, §6, §7

[21] = tested on: Stellaria media; conditions: post-emergence, about 3 weeks
Source text: as §1, §2, §3, §4, §5, §6, §7

[22] = 2 g of ai/ha, post-emergence, about 3 weeks
[23] = 4 g of ai/ha, post-emergence, about 3 weeks
[24] = 8 g of ai/ha, post-emergence, about 3 weeks
[25] = 15 g of ai/ha, post-emergence, about 3 weeks
[26] = 125 g of ai/ha, post-emergence, about 3 weeks
[27] = application rate 4 g ai/ha, iodosulfuron tested as Hussar (iodosulfuron 5% & mefenpyr 15%)
[28] = application rate 2 g ai/ha, iodosulfuron tested as Hussar (iodosulfuron 5% & mefenpyr 15%)
[29] = application rate 8 g ai/ha, iodosulfuron tested as Hussar (iodosulfuron 5% & mefenpyr 15%)
[30] = 30 g of ai/ha, post-emergence, about 3 weeks
[31] = 60 g of ai/ha, post-emergence, about 3 weeks

How did the Veronica persicaria observed ([1]; 2 g of ai/ha) turn out when `COc1ncc(F)c2nc(S(=O)(=O)Nc3c(F)cccc3F)nn12` [Florasulam, N-(2,6-difluoro-phenyl)-8-fluoro-5-methoxy-[1,2,4]-triazolo-[1,5-c]-pyrimidine-2-sulphonamide] was run?
Its Veronica persicaria observed is 0%.

And the Veronica persicaria observed ([1]; 4 g of ai/ha)?
The Veronica persicaria observed was 0%.

And the Galium aparine observed ([2]; 2 g of ai/ha)?
The Galium aparine observed was 50%.

And the Galium aparine observed ([2]; 4 g of ai/ha)?
The Galium aparine observed was 50%.

What about the Avena fatua observed [3, 22] of the same compound?
Its Avena fatua observed is 0%.

And the Avena fatua observed [3, 23]?
The Avena fatua observed was 10%.

And the Avena fatua observed [3, 24]?
The Avena fatua observed was 30%.

And the Avena fatua observed [3, 25]?
The Avena fatua observed was 50%.

What about the Matricaria inodora observed [4] of the same compound?
The Matricaria inodora observed was 70%.

And the Lolium perenne observed ([5]; 2 g of ai/ha)?
Its Lolium perenne observed is 0%.

What about the Lolium perenne observed ([5]; 4 g of ai/ha) of the same compound?
Its Lolium perenne observed is 0%.

And the Lolium perenne observed ([5]; 8 g of ai/ha)?
The Lolium perenne observed was 20%.

And the Lolium perenne observed ([5]; 15 g of ai/ha)?
Its Lolium perenne observed is 30%.

What about the Bromus secalinus observed [6, 22] of the same compound?
Its Bromus secalinus observed is 0%.

What about the Bromus secalinus observed [6, 23] of the same compound?
Its Bromus secalinus observed is 0%.

And the Viola arvensis observed ([7]; 2 g of ai/ha)?
The Viola arvensis observed was 0%.

And the Viola arvensis observed ([7]; 4 g of ai/ha)?
Its Viola arvensis observed is 0%.

What about the Viola arvensis observed ([7]; 8 g of ai/ha) of the same compound?
Its Viola arvensis observed is 70%.

And the Echinochloa crus-galli observed [8, 22]?
Its Echinochloa crus-galli observed is 10%.

What about the Echinochloa crus-galli observed [8, 23] of the same compound?
The Echinochloa crus-galli observed was 40%.

And the Cassia tora observed [9, 24]?
Its Cassia tora observed is 90%.

What about the Cassia tora observed [9, 25] of the same compound?
Its Cassia tora observed is 95%.

What about the Abutilon theophrasti observed ([10]; 2 g of ai/ha) of the same compound?
Its Abutilon theophrasti observed is 20%.

What about the Abutilon theophrasti observed ([10]; 4 g of ai/ha) of the same compound?
Its Abutilon theophrasti observed is 30%.

And the Polygonum convolvolus observed [11, 24]?
The Polygonum convolvolus observed was 95%.

What about the Polygonum convolvolus observed [11, 25] of the same compound?
Its Polygonum convolvolus observed is 95%.

What about the Digitaria sanguinalis observed ([12]; 2 g of ai/ha) of the same compound?
The Digitaria sanguinalis observed was 0%.

What about the Digitaria sanguinalis observed ([12]; 4 g of ai/ha) of the same compound?
Its Digitaria sanguinalis observed is 0%.

And the Amaranthus retroflexus observed ([13]; 2 g of ai/ha)?
Its Amaranthus retroflexus observed is 70%.

And the Amaranthus retroflexus observed ([13]; 4 g of ai/ha)?
The Amaranthus retroflexus observed was 70%.

And the Xanthium strumarium observed ([14]; 2 g of ai/ha)?
The Xanthium strumarium observed was 40%.

And the Xanthium strumarium observed ([14]; 4 g of ai/ha)?
Its Xanthium strumarium observed is 50%.

What about the Alopecurus myosuroides observed ([15]; 2 g of ai/ha) of the same compound?
Its Alopecurus myosuroides observed is 0%.

And the Alopecurus myosuroides observed ([15]; 4 g of ai/ha)?
The Alopecurus myosuroides observed was 0%.

Which results are given for `CC(C)N(C(=O)COc1nnc(C(F)(F)F)s1)c1ccc(F)cc1` [Flufenacet, N-(4-fluorophenyl)-N-isopropyl-2-(5-trifluoromethyl-1,3,4-thiadiazol-2-yl-oxy)-acetamide]?
Avena fatua observed [3, 26]: 70%; Polygonum convolvolus observed [11, 26]: 0%; Amaranthus retroflexus observed ([13]; 60 g of ai/ha): 0%; Amaranthus retroflexus observed ([13]; 125 g of ai/ha): 0%

Which results are given for `COC(=O)c1ccc(I)cc1S(=O)(=O)NC(=O)Nc1nc(C)nc(OC)n1.[Na]` [Iodosufuron, N-(4-methoxy-6-methyl-1,3,5-triazin-2-yl)-N′-(5-iodo-2-methoxycarbonyl-phenylsulphonyl)-urea sodium salt]?
Setaria viridis observed [16, 27]: 0; Avena fatua observed [3, 24]: 70%; Avena fatua observed ([3]; Table B-62, application rate 2 g ai/ha, iodosulfuron tested as Hussar (iodosulfuron 5% & mefenpyr 15%)): 10; Bromus secalinus observed [6, 28]: 0; Bromus secalinus observed [6, 27]: 0; Bromus secalinus observed [6, 29]: 0; Echinochloa crus-galli observed [8, 28]: 20; Cassia tora observed [9, 29]: 80; Polygonum convolvolus observed [11, 28]: 80

Which results are given for `CCCOc1nn(C(=O)NS(=O)(=O)c2ccccc2C(=O)OC)c(=O)n1C` [Procarbazone-sodium, 2-(2-methoxycarbonyl-phenylsulphonylaminocarbonyl)-4-methyl-5-n-propoxy-2,4-dihydro-3H-1,2,4-triazol-3-one]?
Setaria viridis observed ([16]; application rate 15 g ai/ha): 0; Setaria viridis observed ([16]; application rate 30 g ai/ha): 0; Setaria viridis observed ([16]; application rate 60 g ai/ha): 20; Galium aparine observed ([2]; 15 g of ai/ha): 20%; Galium aparine observed ([2]; 30 g of ai/ha): 30%; Galium aparine observed ([2]; 60 g of ai/ha): 40%; Avena fatua observed [3, 25]: 70% and 50% and 80%; Avena fatua observed [3, 30]: 90% and 50%; Avena fatua observed [3, 31]: 60%; Lolium perenne observed ([5]; 15 g of ai/ha): 0%; Lolium perenne observed ([5]; 30 g of ai/ha): 30% and 20%; Lolium perenne observed ([5]; 60 g of ai/ha): 50%; Bromus secalinus observed [6, 25]: 80% and 70%; Bromus secalinus observed [6, 30]: 80%; Bromus secalinus observed [6, 31]: 90%; Bromus secalinus observed ([6]; application rate 15 g ai/ha): 90; Bromus secalinus observed ([6]; application rate 30 g ai/ha): 90; Viola arvensis observed ([7]; 30 g of ai/ha): 50% and 70%; Viola arvensis observed ([7]; 60 g of ai/ha): 80%; Echinochloa crus-galli observed [8, 30]: 90%; Echinochloa crus-galli observed [8, 31]: 90%; Cassia tora observed [9, 25]: 50%; Cassia tora observed [9, 31]: 30% and 50%; Abutilon theophrasti observed ([10]; 60 g of ai/ha): 60%; Polygonum convolvolus observed [11, 30]: 0%; Polygonum convolvolus observed [11, 31]: 0%; Polygonum convolvolus observed ([11]; application rate 15 g ai/ha): 0; Polygonum convolvolus observed ([11]; application rate 30 g ai/ha): 0; Polygonum convolvolus observed ([11]; application rate 60 g ai/ha): 0; Eriochloa villosa observed [17]: 0%; Ipomoea hederacea observed ([18]; 15 g of ai/ha): 60%; Ipomoea hederacea observed ([18]; 30 g of ai/ha): 70%; Ipomoea hederacea observed ([18]; 60 g of ai/ha): 70%; Cyperus esculentus observed ([19]; 15 g of ai/ha): 70%; Cyperus esculentus observed ([19]; 30 g of ai/ha): 80%; Amaranthus retroflexus observed ([13]; 15 g of ai/ha): 80% and 98%; Amaranthus retroflexus observed ([13]; 30 g of ai/ha): 90% and 98%; Amaranthus retroflexus observed ([13]; 60 g of ai/ha): 98%; Xanthium strumarium observed ([14]; 15 g of ai/ha): 60%; Xanthium strumarium observed ([14]; 30 g of ai/ha): 70% and 60%; Xanthium strumarium observed ([14]; 60 g of ai/ha): 60%; Alopecurus myosuroides observed ([15]; 15 g of ai/ha): 60% and 80%; Alopecurus myosuroides observed ([15]; 30 g of ai/ha): 70% and 80%; Alopecurus myosuroides observed ([15]; 60 g of ai/ha): 70% and 90%; Solanum nigrum observed [20]: 70%; Stellaria media observed ([21]; 15 g of ai/ha): 50%; Stellaria media observed ([21]; 30 g of ai/ha): 60%; Stellaria media observed ([21]; 60 g of ai/ha): 70%
